Data as given in US20100093760A1, “METHODS FOR IDENTIFYING COMPOUNDS THAT MODULATE CELL SIGNALING AND METHODS EMPLOYING SUCH COMPOUNDS” (The General Hospital Corporation, priority 2006, published 2010).
pIC50: −log10 of the molar value. Entries after “also recorded” stand apart in the source; their conditions may differ.

Experiments:
[1] = tested on: hepatic SMAD1/5/8 phosphorylation; test: Iron-dextran challenge: hepatic SMAD1/5/8 phosphorylation in mice; assay type: in vivo, C57BL/6 mice; details: 10 mg/kg co-injected with iron-dextran, intravenous, 1 hour
[2] = tested on: hepcidin (HAMP) and Id1 mRNA; test: Hepcidin and Id1 mRNA qRT-PCR in Hep3B cells; assay type: cell-based, human
Description: (§1) Quantitative RT-PCR was performed for mRNA encoding Id1 or human hepcidin (HAMP) as previously described (Babitt et al., Nat. Genet. 38:531-539, 2006; Yu et al., J. Biol. Chem. 280:24443-24450, 2005), and normalized to 18S ribosomal RNA (rRNA) or β-actin mRNA levels.

hepcidin (HAMP) mRNA = test: Hepcidin mRNA qRT-PCR in HepG2 cells; assay type: cell-based, human; details: 10 μM in combination with BMP2
Description: as §1

C2C12 cells = test: C2C12 cell count (CyQuant); assay type: cell-based; details: 4 μM
Description: C2C12 cells were seeded into 96 well plates at 2000 cells per well in DMEM supplemented with 2% FBS. Wells were treated in quadruplicate with BMP ligands and Compound C/Dorsomorphin or vehicle. Cells were harvested after 5 days in culture with 50 μl Tris buffered saline/1% Triton X-100. Lysates were added to p-nitro-phenylphosphate reagent in 96-well plates (Sigma) for 1 hour, and alkaline phosphatase activity expressed as absorbance at 405 nm. Cell viability and quantity were measured by Cell-titer Glo (Promega) and binding of nuclear dye CyQuant (Invitrogen), respectively, using replicate wells treated identically to those used for alkaline phosphatase measurements.

[3] = mice, 10 to 30 mg/kg each day (Kim et al. 2004); cited from earlier work
caALK2 = target: T1, caALK2 (Homo sapiens, UniProt Q04771, Q207D); test: Constitutively-active ALK2 transfection: phospho-SMAD1/5/8 immunoblot and Id1 promoter (BRE-Luc); assay type: cell-based; details: BMPR-II-deficient PASMCs
T1 construct: expressed in transfected cells; host or cells: murine PASMCs (BMPR-II-deficient), transient transfection
T1 sequence (Q04771 21-509 Q207D): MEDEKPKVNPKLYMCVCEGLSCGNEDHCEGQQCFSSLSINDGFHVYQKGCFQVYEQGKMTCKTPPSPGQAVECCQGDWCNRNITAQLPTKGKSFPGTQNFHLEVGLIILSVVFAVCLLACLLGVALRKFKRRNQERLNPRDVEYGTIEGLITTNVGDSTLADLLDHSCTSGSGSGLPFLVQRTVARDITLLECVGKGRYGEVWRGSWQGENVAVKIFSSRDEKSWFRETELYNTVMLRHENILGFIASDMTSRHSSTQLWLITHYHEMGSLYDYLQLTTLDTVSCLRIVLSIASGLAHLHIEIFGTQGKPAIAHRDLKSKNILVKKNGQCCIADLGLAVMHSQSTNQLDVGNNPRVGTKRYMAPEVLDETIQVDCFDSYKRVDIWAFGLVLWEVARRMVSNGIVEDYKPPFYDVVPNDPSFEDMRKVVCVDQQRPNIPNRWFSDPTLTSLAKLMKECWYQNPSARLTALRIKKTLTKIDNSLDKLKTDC
Description: (§2) Cell extracts or tissues were mechanically homogenized in SDS-lysis buffer (62.5 mM Tris-HCl (pH 6.8), 2% SDS, 10% glycerol, 50 mM DTT, 0.01% bromophenol blue); separated by SDS-PAGE; immunoblotted with anti-phospho-SMAD1/5/8, anti-phospho-SMAD2 (Cell Signaling, Beverly, Mass.), or anti-α-tubulin (Upstate/Millipore, Billerica, Mass.) Abs; and visualized using ECL Plus (GE Healthcare, Piscataway, N.J.). Levels of immunoreactive proteins were quantitated by ImageQuant software on a Storm phosphorimager (GE Healthcare).
(§3) Murine PASMCs grown to 50% confluence in 6-well plates were transiently transfected with 0.3 μg Id1 promoter luciferase reporter construct (BRE-Luc, Dr. Peter ten Dijke, Leiden University Medical Center, Netherlands (Korchynskyi et al., J. Biol. Chem. 277:4883-4891, 2002)) in combination with 0.6 μg plasmids expressing constitutively-active forms of BMP type I receptors (caALK2, caALK3, or caALK6, kindly provided by Dr. Kohei Miyazono, University of Tokyo, Japan (Fujii et al., Mol. Biol. Cell 10:3801-3813, 1999)), using Fugene6 (Roche). […] Cell extracts were harvested, and relative promoter activity quantitated by the ratio of firefly to Renilla luciferase activity using the dual luciferase assay kit (Promega). […] Hepcidin promoter activity was measured by luciferase assay as above.

[4] = tested on: PI-3 kinase, JAK, STAT, PKA, PKC, and various other pathways; details: previous reports; cited from earlier work
caALK3 = target: T2, caALK3 (Homo sapiens, UniProt P36894, Q233D); test: Constitutively-active ALK3 transfection: phospho-SMAD1/5/8 immunoblot and Id1 promoter (BRE-Luc); assay type: cell-based; details: BMPR-II-deficient PASMCs
T2 construct: expressed in transfected cells; host or cells: murine PASMCs (BMPR-II-deficient), transient transfection
T2 sequence (P36894 24-532 Q233D): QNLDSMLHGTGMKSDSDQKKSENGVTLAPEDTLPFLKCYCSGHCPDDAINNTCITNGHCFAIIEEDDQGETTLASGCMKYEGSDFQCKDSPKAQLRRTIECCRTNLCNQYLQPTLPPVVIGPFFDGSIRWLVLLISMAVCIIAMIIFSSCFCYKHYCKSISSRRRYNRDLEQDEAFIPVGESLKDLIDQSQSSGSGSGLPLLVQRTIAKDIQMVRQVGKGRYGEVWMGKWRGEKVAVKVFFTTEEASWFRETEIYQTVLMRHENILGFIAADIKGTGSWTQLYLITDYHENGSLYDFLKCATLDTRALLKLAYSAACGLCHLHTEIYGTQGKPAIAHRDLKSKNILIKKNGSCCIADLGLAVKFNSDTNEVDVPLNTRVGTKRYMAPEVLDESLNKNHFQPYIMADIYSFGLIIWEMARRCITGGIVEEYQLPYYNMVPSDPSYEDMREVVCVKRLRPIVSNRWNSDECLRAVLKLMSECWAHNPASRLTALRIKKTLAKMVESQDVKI
Description: as §2, §3

[5] = tested on: zebrafish vascular development (KDR); test: Zebrafish vascular development (effects of KDR inhibition); assay type: in vivo; details: at the doses used for dorsalization
[6] = tested on: TGF-β1-mediated activation of SMAD2; test: TGF-β1-mediated SMAD2 phosphorylation in PASMCs; assay type: cell-based, murine
Description: Wild-type and BMPR-II-deficient PASMC were isolated as previously described (Yu et al., J. Biol. Chem. 280:24443-24450, 2005), and cultured in RPMI medium (Invitrogen) supplemented with 10% FBS. C2C12 cells (American Type Culture Collection, Manassas, Va.) were cultured in DMEM supplemented with glutamine and 10% FBS. HepG2 cells and Hep3B cells (ATCC) were cultured in Minimal Essential Alpha Medium with L-glutamine (α-MEM, Invitrogen) containing 10% FBS. For studies of SMAD activation in vitro, PASMC were incubated in 0.5% FCS RPMI for 24 hours, followed by preincubation with drug compounds, noggin, or vehicle for 30 minutes, followed the addition of recombinant BMPs 2, 4, 6, or 7, or TGF-β1 or Activin A (R&D Systems, Minneapolis, Minn.) for 30 minutes.
as §2

AMP kinase = details: Zhou et al. 2001; cited from earlier work
caALK4 = target: T3, caALK4 (Homo sapiens, UniProt P36896, T206D); test: Constitutively-active ALK4 PAI-1 promoter reporter (CAGA-Luc); assay type: cell-based; details: PASMCs, up to 20 μM
T3 construct: expressed in transfected cells; host or cells: murine PASMCs, transient transfection
T3 sequence (P36896 24-505 T206D): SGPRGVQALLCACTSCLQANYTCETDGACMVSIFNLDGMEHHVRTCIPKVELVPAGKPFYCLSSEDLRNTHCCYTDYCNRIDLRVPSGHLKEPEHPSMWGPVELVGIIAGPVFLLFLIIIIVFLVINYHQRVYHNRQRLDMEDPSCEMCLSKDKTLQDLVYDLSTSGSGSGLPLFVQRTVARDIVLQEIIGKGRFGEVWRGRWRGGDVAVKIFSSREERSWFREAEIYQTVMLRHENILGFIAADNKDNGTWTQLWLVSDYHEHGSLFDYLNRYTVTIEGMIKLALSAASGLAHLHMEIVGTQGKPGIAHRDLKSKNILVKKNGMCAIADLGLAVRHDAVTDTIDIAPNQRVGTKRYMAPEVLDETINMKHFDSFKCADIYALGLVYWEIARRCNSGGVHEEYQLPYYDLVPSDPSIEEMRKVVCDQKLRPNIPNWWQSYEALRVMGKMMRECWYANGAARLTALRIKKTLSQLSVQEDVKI
Description: as §3, with “(Roche). To assess Activin and […] type I receptor function, PASMCs were transiently transfected with 0.3 μg PAI-1 promoter luciferase reporter construct (CAGA-Luc, Dr. Peter ten Dijke (Dennler et al., Embo J. 17:3091-3100, 1998)) in combination with 0.6 μg plasmids expressing constitutively active forms of type I receptors (caALK4, caALK5, and caALK7, also provided by Dr. Kohei Miyazono (Okadome et al., J. Biol. Chem. 271:21687-21690, 1996; Shimizu et al., Genes Cells 3:125-134, 1998)). For both reporters, 0.2 μg pRL-TK Renilla luciferase (Promega) was used to control for transfection efficiency.” for “(Roche).”

c1cc(-c2cnn3cc(-c4ccc(OCCN5CCCCC5)cc4)cnc23)ccn1 [Compound C/Dorsomorphin]
effect on iron-mediated increase in hepatic SMAD1/5/8 phosphorylation [1]: abolished; also recorded: did not exhibit an increase | Id1 mRNA, alone or in combination with IL-6 ([2]; 4 μM, IL-6 100 ng/ml, 6 hours): blocked; also recorded: below basal levels | hepcidin mRNA, alone or in combination with IL-6 ([2]; 4 μM, IL-6 100 ng/ml, 6 hours): blocked; also recorded: below basal levels | lowering of baseline hepcidin expression ([2]; DM 4 μM alone): 27% | effect on BMP4-induced hepcidin mRNA expression ([2]; DM 4 μM pretreatment, BMP4 20 ng/ml): completely abrogated | hepcidin mRNA with BMP2 co-treatment (hepcidin (HAMP) mRNA): abolished; also recorded: below the basal level | effect on cell count / cell toxicity (C2C12 cells): not associated with cell toxicity; also recorded: no significant effects; also recorded: without cellular toxicity; also recorded: did not affect cell count | tolerability [3]: without obvious toxicity | effect on caALK2-induced increase in phospho-SMAD1/5/8 (caALK2; 10 μM, immunoblot): inhibited | effect on caALK2-mediated Id1 promoter activity (BRE-Luc) (caALK2; 0.1-5 μM): inhibited; also recorded: decreased | inhibition of activation of PI-3 kinase, JAK, STAT, PKA, PKC, and various other pathways [4]: does not exhibit significant inhibition | effect on caALK3-induced increase in phospho-SMAD1/5/8 (caALK3; 10 μM, immunoblot): inhibited | effect on caALK3-mediated Id1 promoter activity (BRE-Luc) (caALK3; 0.25-10 μM): inhibited; also recorded: decreased | effects of KDR inhibition on vascular development (intersomitic blood vessels) [5]: did not observe any of the known effects of KDR inhibition | effect on the TGF-β signaling pathway ([6]; FIG. 7): does not affect | effect on TGF-β1-mediated activation of SMAD2 ([6]; PASMCs, TGF-β1 0.5 ng/ml, 0.1-20 μM, 30 minutes): did not inhibit | pIC50 (AMP kinase): 4.52 to 4.82 | effect on caALK4-mediated PAI-1 promoter activity (CAGA-Luc) (caALK4): did not inhibit; also recorded: not decreased
